Reference: patent US12441710B2, “Substituted piperidino compounds and related methods of treatment” (Alkermes, Inc., priority 2020, dated 2025)

Tests used:
[1] = molecular target: T1, human orexin-2 receptor (OX2R) (Homo sapiens, UniProt O43614); experiment: Human OX2R IP1 assay; assay type: cell-based; settings: T-Rex CHO cells stably overexpressing human OX2R; IP1 accumulation, 1 hr at 37 degrees C
T1 construct: expressed in transfected cells
T1 sequence (O43614 1-444): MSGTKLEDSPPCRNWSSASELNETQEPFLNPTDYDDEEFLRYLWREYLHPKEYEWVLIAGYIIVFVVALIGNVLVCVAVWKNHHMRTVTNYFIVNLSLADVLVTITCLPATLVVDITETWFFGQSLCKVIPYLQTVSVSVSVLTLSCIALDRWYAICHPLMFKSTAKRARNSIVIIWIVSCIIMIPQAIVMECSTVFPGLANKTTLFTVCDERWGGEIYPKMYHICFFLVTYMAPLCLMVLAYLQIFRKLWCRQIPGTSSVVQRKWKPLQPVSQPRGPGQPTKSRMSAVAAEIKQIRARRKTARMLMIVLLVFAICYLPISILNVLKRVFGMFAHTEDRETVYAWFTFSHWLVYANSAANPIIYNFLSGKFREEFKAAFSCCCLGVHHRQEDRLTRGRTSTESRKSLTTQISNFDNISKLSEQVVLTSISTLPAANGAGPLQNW
Experimental: T-Rex CHO cells stably overexpressing the human orexin-2 receptor (OX2R) were induced overnight with 1 μg/mL of doxycycline in a T225 flask. 24 hours post induction, cells were lifted with accutase and plated into a 384-well proxy plate at 30,000 cells/well. Cells were then treated with different test compounds in 1× stimulation buffer containing 10 mM Hepes, 1 mM CaCl2), 0.5 mM MgCl2, 4.2 mM KCl, 146 mM NaCl, 5.5 mM glucose, and 50 mM LiCl, pH 7.4, for 1 hr at 37 degrees C. Following incubation, the reaction was terminated by the addition of detection mix, which is composed of IP1-d2 and anti-IP1-cryptate diluted in lysis buffer as well as 1× stimulation buffer. The plates were allowed to incubate for 1 hour at room temperature and were then read in the EnVision® multimode plate reader, measuring inositol phosphate levels.
Cisbio IP1 is a cell-based functional assay quantifying the accumulation of inositol monophosphate (IP), a metabolite released as a result of orexin 2 receptor activation through the phospholipase C-Gq signaling pathway. This is a competitive immunoassay in which the IP1 produced by the cells upon receptor activation competes with the IP1 analog coupled to the d2 fluorophore (acceptor) for binding to an anti-IP1 monoclonal antibody labeled with Eu cryptate (donor). The measured HTRF-FRET based signal is inversely proportional to the IP1 concentration produced.
The EC50 values reported in Table 2 were obtained according to the human OX2R IP1 assay described above. Data are the mean EC50 values±S.E.M. The compound methyl (2R,3S)-3-((methylsulfonyl)amino)-2-(((cis-4-phenylcyclohexyl)oxy)methyl)-piperidine-1-carboxylate (sometimes referred to herein as Reference Compound A) is a reference compound which is disclosed in Example 5 of PCT publication no. WO2017/135306.

human hepatocytes = experiment: Hepatocytes stability assay (human hepatocytes); assay type: in vitro ADME; settings: hepatic clearance divided by liver blood flow, fu assumed unity
Outline: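 Pooled cryopreserved human hepatocytes (50 donors, mixed gender), 1×10^6 cells/mL in KHB, with 1 μM compound (0.1% DMSO) at 37 degrees C, sampled 0–240 min. Parent depletion by LC-MS/MS; first-order fit gave T1/2 and CLint, scaled to hepatic clearance by well-stirred model with fu assumed 1, plus extraction ratio.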

Sprague-Dawley rats = experiment: Assessment of wake promotion in Sprague-Dawley rats (EEG/EMG); assay type: in vivo, rat; settings: SC, 3 mpk; male Sprague-Dawley rats; 6-hour post-dose period
Experimental: Wake promotion was assessed using electroencephalography (EEG) and electromyography (EMG) in adult male Sprague-Dawley rats. All rats (Charles River Laboratories, Raleigh, NC, USA) were intraperitoneally implanted with telemetry devices (F50-EEE, Data Sciences International Inc., MN, USA) under isoflurane anesthesia. For EEG, stainless steel screws were implanted over frontal cortex and parietal cortex, and reference screws were placed over cerebellum. Additionally, an electrode was placed in neck muscle for EMG. Rats were given carprofen post-surgery and underwent a 7 to 10-day recovery period. Rats habituated to the experimental room for 7 days and were maintained on a 12-hour light-dark cycle.
EEG and EMG data were recorded using the DSI telemetry system and Ponemah software (Data Sciences International Inc., MN, USA). Sleep-wake stages were scored both manually and with Somnivore, a supervised machine learning software platform, in 10 second epochs. Records were visually inspected as needed post-processing.
All test compounds were dissolved in 5% DMSO and suspended in 95% saline with 0.5% methylcellulose and 0.5% tween. […] Unless otherwise indicated, all compounds were dosed orally. Recordings for each rat were initiated immediately after dosing and lasted for 6 hours post-dose.
Two key endpoints include wakefulness time and cortical activation time. […]

EC50 [1]: < 100 nM | Extraction Ratio (ER) (human hepatocytes): 0.92
Compound: COC(=O)N1CCC[C@H](NS(C)(=O)=O)[C@@H]1CO[C@H]1CC[C@@H](c2ccccc2)CC1 [Reference Compound A, methyl (2R,3S)-3-((methylsulfonyl)amino)-2-(((cis-4-phenylcyclohexyl)oxy)methyl)-piperidine-1-carboxylate, reference compound]
Mean cortical activation time (% vehicle treatment) (Sprague-Dawley rats): 118.75 % vehicle treatment
